“And” between values parts separate entries of the source, which are not always exact repeats. Identical values can stand only once.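 1) Cells in 96-well plates. 2) Compound, 48 h, 5 concentrations. 3) Linear interpolation between surrounding doses. 4) Unreached endpoint = highest concentration. GI50: concentration for 50% inhibition of growth. The concentration for full growth arrest is given as TGI.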
Experiments:
Test in all cases: inhibition of tumour cell growth, NCI panel, 48 h
PC-3 prostate = test system: PC-3 prostate
SR leukemia = test system: SR leukemia
SW-620 colon = test system: SW-620 colon
UACC-257 melanoma = test system: UACC-257 melanoma
M14 melanoma = test system: M14 melanoma
RXF 393 renal = test system: RXF 393 renal
A498 renal = test system: A498 renal
HCC-2998 colon = test system: HCC-2998 colon
786-0 renal = test system: 786-0 renal
MDA-MB-231 breast = test system: MDA-MB-231 breast
COLO 205 colon = test system: COLO 205 colon
OVCAR-3 ovarian = test system: OVCAR-3 ovarian
SK-MEL-2 melanoma = test system: SK-MEL-2 melanoma
HCT-15 colon = test system: HCT-15 colon
DU-145 prostate = test system: DU-145 prostate
UO-31 renal = test system: UO-31 renal
TK-10 renal = test system: TK-10 renal
OVCAR-8 ovarian = test system: OVCAR-8 ovarian
MALME-3M melanoma = test system: MALME-3M melanoma
SK-MEL-5 melanoma = test system: SK-MEL-5 melanoma
CAKI-1 renal = test system: CAKI-1 renal
HOP-92 NSCLC = test system: HOP-92 NSCLC
SK-MEL-28 melanoma = test system: SK-MEL-28 melanoma
EKVX NSCLC = test system: EKVX NSCLC
NCI-H23 lung = test system: NCI-H23 lung
MDA-MB-468 breast = test system: MDA-MB-468 breast
OVCAR-5 ovarian = test system: OVCAR-5 ovarian
KM12 colon = test system: KM12 colon
K-562 leukemia = test system: K-562 leukemia
UACC-62 melanoma = test system: UACC-62 melanoma
SF-295 CNS = test system: SF-295 CNS
CCRF-CEM leukemia = test system: CCRF-CEM leukemia
HCT-116 colon = test system: HCT-116 colon
HOP-62 NSCLC = test system: HOP-62 NSCLC
OVCAR-4 ovarian = test system: OVCAR-4 ovarian
HT29 colon = test system: HT29 colon
SN12C renal = test system: SN12C renal
HL-60(TB) leukemia = test system: HL-60(TB) leukemia
U251 CNS = test system: U251 CNS
A549 NSCLC = test system: A549 NSCLC
MDA-MB-435 = test system: MDA-MB-435
SF-268 CNS = test system: SF-268 CNS
MOLT-4 leukemia = test system: MOLT-4 leukemia
ACHN renal = test system: ACHN renal
NCI-H460 lung = test system: NCI-H460 lung
NCI-H522 lung = test system: NCI-H522 lung
NCI-H226 lung = test system: NCI-H226 lung
BT-549 breast = test system: BT-549 breast
T-47D breast = test system: T-47D breast
SF-539 CNS = test system: SF-539 CNS
IGROV1 ovarian = test system: IGROV1 ovarian
RPMI-8226 leukemia = test system: RPMI-8226 leukemia
HS 578T breast = test system: HS 578T breast
LOX IMVI melanoma = test system: LOX IMVI melanoma
MCF7 breast = test system: MCF7 breast
NCI/ADR-RES ovarian = test system: NCI/ADR-RES ovarian
SK-OV-3 ovarian = test system: SK-OV-3 ovarian
SNB-19 CNS = test system: SNB-19 CNS

## COc1ccc(C(=O)/C=C/c2cccc3ccccc23)cc1S(N)(=O)=O
PC-3 prostate
  GI50: 2.31 µM
  TGI: 6.64 µM
SR leukemia
  GI50: 0.749 µM
  TGI: 5.13 µM
SW-620 colon
  GI50: 1.62 µM
  TGI: 3.46 µM
UACC-257 melanoma
  GI50: 3.05 µM
  TGI: 12.3 µM
M14 melanoma
  GI50: 2.03 µM
  TGI: 5.68 µM
RXF 393 renal
  GI50: 1.57 µM
  TGI: 3.24 µM
A498 renal
  GI50: 13.2 µM
  TGI: 26.2 µM
HCC-2998 colon
  GI50: 1.75 µM
  TGI: 3.24 µM
786-0 renal
  GI50: 1.86 µM
  TGI: 3.87 µM
MDA-MB-231 breast
  GI50: 2.38 µM
  TGI: 6.49 µM
COLO 205 colon
  GI50: 1.67 µM
  TGI: 3.24 µM
OVCAR-3 ovarian
  GI50: 1.8 µM
  TGI: 4.38 µM
SK-MEL-2 melanoma
  GI50: 4.99 µM
  TGI: 17.8 µM
HCT-15 colon
  GI50: 1.23 µM
  TGI: 3.2 µM
DU-145 prostate
  GI50: 2.85 µM
  TGI: 10.8 µM
UO-31 renal
  GI50: 1.48 µM
  TGI: 3.19 µM
TK-10 renal
  GI50: 2.89 µM
  TGI: 10.2 µM
OVCAR-8 ovarian
  GI50: 2.39 µM
  TGI: 10.1 µM
MALME-3M melanoma
  GI50: 1.83 µM
  TGI: 4.2 µM
SK-MEL-5 melanoma
  GI50: 2.53 µM
  TGI: 7.71 µM
CAKI-1 renal
  GI50: 2.42 µM
  TGI: 10.6 µM
HOP-92 NSCLC
  GI50: 2.14 µM
  TGI: 9.53 µM
SK-MEL-28 melanoma
  GI50: 1.85 µM
  TGI: 3.64 µM
EKVX NSCLC
  GI50: 3.55 µM
  TGI: 13.5 µM
NCI-H23 lung
  GI50: 2.21 µM
  TGI: 5.64 µM
MDA-MB-468 breast
  GI50: 1.53 µM
  TGI: 3.11 µM
OVCAR-5 ovarian
  GI50: 1.84 µM
  TGI: 4.4 µM
KM12 colon
  GI50: 1.46 µM
  TGI: 3.57 µM
K-562 leukemia
  GI50: 1.69 µM
  TGI: 7.54 µM
UACC-62 melanoma
  GI50: 1.53 µM
  TGI: 3 µM
SF-295 CNS
  GI50: 2.38 µM
  TGI: 7.74 µM
CCRF-CEM leukemia
  GI50: 2.54 µM
  TGI: 6.95 µM
HCT-116 colon
  GI50: 1.33 µM
  TGI: 2.93 µM
HOP-62 NSCLC
  GI50: 2.03 µM
  TGI: 5.66 µM
OVCAR-4 ovarian
  GI50: 2.87 µM
  TGI: 11.3 µM
HT29 colon
  GI50: 1.74 µM
  TGI: 3.92 µM
SN12C renal
  GI50: 1.6 µM
  TGI: 3.91 µM
HL-60(TB) leukemia
  GI50: 1.36 µM
  TGI: 5.81 µM
U251 CNS
  GI50: 1.5 µM
  TGI: 3.02 µM
A549 NSCLC
  GI50: 2.66 µM
  TGI: 9.65 µM
MDA-MB-435
  GI50: 2.23 µM
  TGI: 7.5 µM
SF-268 CNS
  GI50: 3.04 µM
  TGI: 11.1 µM
MOLT-4 leukemia
  GI50: 2.3 µM
  TGI: 6.39 µM
ACHN renal
  GI50: 1.89 µM
  TGI: 3.92 µM
NCI-H460 lung
  GI50: 1.79 µM
  TGI: 4.16 µM
NCI-H522 lung
  GI50: 1.61 µM
  TGI: 3.2 µM
NCI-H226 lung
  GI50: 3.1 µM
  TGI: 13.2 µM
BT-549 breast
  GI50: 1.77 µM
  TGI: 3.63 µM
T-47D breast
  GI50: 3.41 µM
  TGI: 14.1 µM
SF-539 CNS
  GI50: 1.64 µM
  TGI: 3.06 µM
IGROV1 ovarian
  GI50: 2.3 µM
  TGI: 7.12 µM
RPMI-8226 leukemia
  GI50: 1.59 µM
  TGI: 5.34 µM
HS 578T breast
  GI50: 5.21 µM
  TGI: 26.8 µM
LOX IMVI melanoma
  GI50: 1.35 µM
  TGI: 2.63 µM
MCF7 breast
  GI50: 2.14 µM
  TGI: 8.58 µM
NCI/ADR-RES ovarian
  GI50: 2.2 µM
  TGI: 6.4 µM
SK-OV-3 ovarian
  GI50: 3.72 µM
  TGI: 15.4 µM
SNB-19 CNS
  GI50: 3.45 µM
  TGI: 13.7 µM

## COc1ccc(-c2cnnn2-c2nonc2-n2cccc2)cc1
MDA-MB-468 breast
  GI50: 0.13 µM
  TGI: 0.721 µM

## Cn1cc(-c2csc(-c3cn(CCCCN4CCCCC4)c4ccccc34)n2)c2cccnc21
MDA-MB-468 breast
  GI50: 1.61 µM
  TGI: 3.29 µM

## O=C(/C(=C\c1c(-c2ccccc2)[nH]c2ccccc12)S(=O)(=O)c1ccccc1)c1ccccc1
MDA-MB-468 breast
  GI50: 4.18 µM
  TGI: > 100 µM

## COc1ccc(-c2nc(-c3cc(OC)cc(OC)c3)[nH]c2-c2ccc(OC)cc2)cc1
MDA-MB-468 breast
  GI50: 2.78 µM
  TGI: > 100 µM

## COc1ccc(/C(C)=C(\c2ccc(OCCN3CCCCCC3)cc2)c2ccc(OC(=O)C3CCCCC3)cc2)cc1
MDA-MB-468 breast
  GI50: 0.737 µM
  TGI: 2.84 µM

## CC1(C)CN=C(NN=C(/C=C/c2ccc(C(F)(F)F)cc2)/C=C/c2ccc(C(F)(F)F)cc2)NC1
MDA-MB-468 breast
  GI50: 1.28 µM
  TGI: 2.72 µM

## COc1ccc(-c2ccc3c(N4CCOC[C@@H]4C)nc(N4CCOC[C@@H]4C)nc3n2)cc1CO
MDA-MB-468 breast
  GI50: 0.00533 µM and 0.018 µM
  TGI: 0.0199 µM and 0.195 µM

## Cc1ccc(OCCOCCOCCOCCOc2ccc(C)n(O)c2=S)c(=S)n1O
MDA-MB-468 breast
  GI50: < 0.0174 µM
  TGI: 5.33 µM

## c1ccc2c(c1)[nH]c1c2cc[n+]2cc3c(cc12)CCCC3
MDA-MB-468 breast
  GI50: 1.12 µM
  TGI: 2.98 µM

## OC(c1cc(-c2ccc(C(F)(F)F)cc2)nc(C(F)(F)F)c1)C1CCCCN1 (stereo not given)
MDA-MB-468 breast
  GI50: 1.61 µM and 1.5 µM
  TGI: 3.33 µM and 2.83 µM

## NNCCc1ccc(NC(=O)CCCc2ccc(C(=O)Nc3ccccc3N)cc2)cc1
MDA-MB-468 breast
  GI50: 10.9 µM
  TGI: 40.1 µM

## C#CCOc1cccc(Nc2ncnc3c(NC(=O)C=C)cccc23)c1
MDA-MB-468 breast
  GI50: 4.91 µM
  TGI: 25.4 µM
